The results in this text go back to patent US9856219B2, “Substituted quinoline compounds as S-nitrosoglutathione reductase inhibitors” (Nivalis Therapeutics, Inc., priority 2010, dated 2018).

In experiment [1] the test system is acute DSS-induced IBD. The experiment in a line: Acute prophylactic model of DSS-induced IBD. The class given is in vivo, male C57Bl/6 mice. The text has this: Acute and chronic models of dextran sodium sulfate (DSS)-induced IBD in mice were used to explore efficacy of GSNORi against this disease. Acute and chronic DSS-induced IBD are widely used and well characterized models that induce pathological changes in the colon similar to those observed in the human disease. In these models and in human disease, epithelial cells within the crypts of the colon are disrupted, leading to dysfunction of the epithelial barrier and the ensuing tissue inflammation, edema, and ulceration. GSNORi therapy may benefit IBD by restoring s-nitrosoglutathione (GSNO) levels, and thus prevent or reverse the epithelial barrier dysfunction. Experimental IBD was induced by administration of DSS in the drinking water of male C57Bl/6 mice (N=8 to 10 mice per group) for 6 consecutive days. GSNORi was dosed orally at doses of 0.1 to 10 mg/kg/day for 10 days starting two days prior to and continuing two days post DSS exposure. Two days post DSS exposure, the effect of GSNORi was assessed in a blinded fashion via endoscopy and histopathology using a five point scale ranging from a score=0 (normal tissue) through a score=4 (ulcerative tissue damage and marked pathological changes). Levels of circulating cytokines involved in inflammatory pathways were also assessed. The effect of GSNORi was compared to vehicle treated controls. The corticosteroid, prednisolone, was used as the positive control in this study and was administered daily at 3 mg/kg/day via oral dosing. Naïve mice (N=5) were also assessed as a normal tissue control.

Experiment [2] relates to cigarette smoke-induced COPD (BALF cells and chemokines). Put plainly: Acute (4 day) cigarette smoke exposure COPD model. It is filed as in vivo, female C57Bl/6 mice. The note with it: oral 10 mg/kg/day for 7 days. As for the experimental part:
(§1) The efficacy of GSNOR inhibitors was assessed in a mouse model of chronic obstructive pulmonary disease (COPD) induced by short duration (4 days or 11 days) of exposure to cigarette smoke. Infiltration of inflammatory cells into the bronchoalveolar lavage fluid (BALF) and BALF levels of chemokines involved in inflammation and tissue turnover/repair were measured to assess the influences of GSNOR inhibitors on some of the early events associated with the initiation and progression of COPD.
Efficacy of GSNOR inhibitors against COPD was explored using acute (4 day) and subchronic (11 day) models of cigarette smoke-induced COPD in mice. […] In animal models, changes in lung pathology are only evident after extended (several months) duration of exposure to cigarette smoke, thus making chronic models prohibitive as effective screening tools. […]
Female C57Bl/6 mice (N=8 per group) were exposed to cigarette smoke using a whole body exposure chamber. […] The effects of GSNOR inhibitors were assessed by quantitating the numbers of total cells, leukocytes, and leukocytes differentials in the BALF via light microscopy and the levels of BALF chemokines via ELISA at approximately 24 h after the last smoke exposure. […]

In experiment [3] the test system is cigarette smoke-induced COPD (BALF cells). Put plainly: Subchronic (11 day) cigarette smoke exposure COPD model. It is filed as in vivo, female C57Bl/6 mice. To be noted: for effects compared to positive control roflumilast: roflumilast 5 mg/kg/day. As for the experimental part: as §1
Efficacy of GSNOR inhibitors against COPD was explored using acute (4 day) and subchronic (11 day) models of cigarette smoke-induced COPD in mice. […] In animal models, changes in lung pathology are only evident after extended (several months) duration of exposure to cigarette smoke, thus making chronic models prohibitive as effective screening tools. More recently, models exploring inflammatory responses after short duration (2 weeks or less) of smoke exposure in mice have been utilized as tools for screening efficacy and mechanisms of action of novel therapeutics against COPD. The key roles of inflammation in the initiation and progression of COPD, make these short duration models relevant for initial tests of efficacy of novel therapeutics.
Female C57Bl/6 mice (N=10 per group) were exposed to cigarette smoke generated from Marlboro 100 cigarettes without filters. Exposure times were 25 min. on study day 1, 35 min. on study day 2, and 45 min. on study days 3 to 11. GSNOR inhibitors were administered one hour prior to smoke exposure on each day. GSNOR inhibitors were dosed orally at 1 to 10 mg/kg/day for 11 days. The effects of GSNOR inhibitors were assessed by quantitating the number of total cells, and leukocytes differentials in the BALF via light microscopy at 24 h after the last exposure. The effect of GSNOR inhibitors were compared to vehicle treated controls and expressed as percent inhibition of the cigarette smoke induced increases in BALF cell numbers. Roflumilast was used as the positive control for the study and was dosed at 5 mg/kg/day. A group of naïve mice (N=10) was exposed to air and dosed with vehicle as a negative control for the study.

Experiment [4] has as its system chronic DSS-induced IBD. The experiment in a line: Chronic treatment model of DSS-induced IBD. It is filed as in vivo, male C57Bl/6 mice. To be noted: oral 10 mg/kg/day for up to 14 consecutive days, treatment regimen; p<0.05. The text has this:
Acute and chronic models of dextran sodium sulfate (DSS)-induced IBD in mice were used to explore efficacy of GSNORi against this disease. Acute and chronic DSS-induced IBD are widely used and well characterized models that induce pathological changes in the colon similar to those observed in the human disease. In these models and in human disease, epithelial cells within the crypts of the colon are disrupted, leading to dysfunction of the epithelial barrier and the ensuing tissue inflammation, edema, and ulceration. GSNORi therapy may benefit IBD by restoring s-nitrosoglutathione (GSNO) levels, and thus prevent or reverse the epithelial barrier dysfunction.
Experimental IBD was induced by administration of DSS in the drinking water of male C57Bl/6 mice (N=10 to 12 mice per group) for 6 consecutive days. GSNORi was dosed orally at doses of 10 mg/kg/day for 14 days starting one day after cessation of DSS exposure. Efficacy of GSNORi was assessed in a blinded fashion via endoscopy after 7 days and 14 days of GSNORi dosing and via histopathology after 14 days of GSNORi dosing using a five point scale ranging from a score=0 (normal tissue) through a score=4 (ulcerative tissue damage and marked pathological changes). Levels of circulating cytokines involved in inflammatory pathways were also assessed. […] Naïve mice (N=5) were also assessed as a normal tissue control.

The mark [5] stands for this setting: oral 10 mg/kg/day for 10 consecutive days, prophylactic regimen.

On to `O=C(O)c1ccc(-c2ccc3cc(O)ccc3n2)cc1` [Compound 3, 4-(6-hydroxyquinolin-2-yl)benzoic acid], for which the circulating inflammatory cytokines result in experiment [1] (oral 0.1, 1, or 10 mg/kg/day for 10 days, prophylactic regimen) was “restored circulating inflammatory cytokines towards levels observed in untreated naïve mice”. Also, the “effects compared to positive control prednisolone” value in experiment [1] (prednisolone 3 mg/kg/day oral) was “comparable to or greater than those observed for prednisolone”. For the same compound, in experiment [2], the BALF chemokines result is recorded as “restored BALF chemokines towards levels observed in naïve mice” and the “effects compared to positive control roflumilast” value was “comparable to or greater than those observed for roflumilast”.

Turning to `O=C(O)c1ccc(-c2ccc3cc(O)ccc3n2)c(Cl)c1` [Compound 8, 3-chloro-4-(6-hydroxyquinolin-2-yl)benzoic acid], in experiment [1] (setting [5]), the “decrease of percent of mice with severe colon injury scores via endoscopy, of vehicle control” value turned out to be 44% and the “decrease of percent of mice with severe colon injury scores via histopathology, of vehicle control” value was 26%. In addition, in experiment [3] (oral 1, 5, or 10 mg/kg/day), the “dose response of effect” value is reported as “no dose response”. Further, the “effects compared to positive control roflumilast” value in experiment [3] is given as “comparable to those of roflumilast”.

`O=C(O)c1ccc(-c2ccc3cc(O)ccc3n2)c(F)c1` [Compound 13, 3-fluoro-4-(6-hydroxyquinolin-2-yl)benzoic acid]: in experiment [4], the “decrease of percent of mice with severe colon injury scores via endoscopy, of vehicle control” value is 52% and the “decrease of percent of mice with severe colon injury scores via histopathology, of vehicle control” value was 53%. Also, in experiment [3], the “effects compared to positive control roflumilast” value is “comparable to those of roflumilast”.

On to `Cc1cc(C(=O)O)ccc1-c1ccc2cc(O)ccc2n1` [Compound 27, 4-(6-hydroxyquinolin-2-yl)-3-methylbenzoic acid], for which the “effects compared to positive control roflumilast” value in experiment [3] was “comparable to those of roflumilast”.
